Experimental findings from ChEMBL document CHEMBL1143489, “Design, synthesis, and enzymatic property of a sulfur-substituted analogue of trigalacturonic acid” (Bioorg Med Chem Lett, 2005) are described below.

In the experiment the target is T1, Endopolygalactyuronase (Chondrostereum purpureum, UniProt P79074).
T1 sequence (P79074 whole entry): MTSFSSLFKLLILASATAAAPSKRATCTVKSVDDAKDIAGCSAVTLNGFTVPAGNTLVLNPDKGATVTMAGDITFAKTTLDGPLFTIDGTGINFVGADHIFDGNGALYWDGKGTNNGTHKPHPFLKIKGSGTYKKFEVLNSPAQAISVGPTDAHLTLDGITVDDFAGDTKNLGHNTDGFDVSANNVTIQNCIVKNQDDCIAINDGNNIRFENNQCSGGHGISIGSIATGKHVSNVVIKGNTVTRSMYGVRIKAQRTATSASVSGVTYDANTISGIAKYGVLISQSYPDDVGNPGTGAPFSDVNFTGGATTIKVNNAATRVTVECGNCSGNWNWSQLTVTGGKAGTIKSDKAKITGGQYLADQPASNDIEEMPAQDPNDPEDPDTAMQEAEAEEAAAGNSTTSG
The experiment is described as follows: Dissociation constant against endo-polygalacturonase 1.

As a reminder, the Kd is a measure of binding affinity in units of concentration. Higher therefore signals lower affinity.

With `CO[C@H]1O[C@@H](C(=O)O)[C@H](S[C@H]2O[C@@H](C(=O)O)[C@H](O[C@H]3O[C@@H](C(=O)O)[C@H](O)[C@H](O)[C@@H]3O)[C@H](O)[C@@H]2O)[C@H](O)[C@@H]1O`, the Kd was found to be 200 nM.
